Values of other authors as cited in patent US20130267590A1, “RETIGABINE COMPOSITIONS” (Dr. Reddy's Laboratories Limited, priority 2011, published 2013).
Counter-ions that a name gives are not always drawn.

Assays:
[1] = system: KCNQ (Kv7.2 to 7.5) family of ion channels; details: in vitro

CCOC(=O)Nc1ccc(NCc2ccc(F)cc2)cc1N [dihydrochloride salt of retigabine]
storage stability (medium to long-term storage at −18° C.): unstable

CCOC(=O)Nc1ccc(NCc2ccc(F)cc2)cc1N [retigabine, ethyl 2-amino-4-(4-fluorobenzylamino) phenylcarbamate]
effect on transmembrane potassium currents mediated by KCNQ channels [1]: enhances transmembrane potassium currents
oxidation stability (contact with air): oxidize upon contact with air
